Patent US10208089B2, “Modulation of complement activity” (priority 2014, dated 2019)
Read-outs that look alike come from different tables or passages of the source. Starred links: 1 amine or outer side, 2 acyl side, 3 side chain; linkers in the order of their positions; H or OH if unused. Positions of bridges follow the written chain, without caps; N, C: chain ends. Non-standard residues stand in square brackets, D forms with d. Residues, ends and D or L forms follow the SMILES beside them. Trp(7-aza) = N[C@@H](Cc1c[nH]c2ncccc12)C(=O)O; mXylylene = c1cc(C[*:1])cc(C[*:2])c1; pXylylene = c1cc(C[*:2])ccc1C[*:1]; Phg = N[C@H](C(=O)O)c1ccccc1; NMeS = CN[C@@H](CO)C(=O)O; Nva = CCC[C@H](N)C(=O)O

Columns and labels:
C5 [1] = molecular target: T1, C5 (Homo sapiens, UniProt P01031); test: Human hemolysis assay (RBC lysis assay using complete human sera); type: cell-based; parameters: with complete human sera (Complement Technology, Tyler Tex.) and polypeptides; tissue Complement Technology, Tyler Tex; host or cells: complete human serum; settings: inhibition of lysis of antibody-sensitized sheep erythrocytes, complete human sera
C5 [2] = molecular target: T1, C5; test: Competitive fluorescence polarization assay with probe R3076; type: binding; parameters: purchased Complement Technology, Tyler, Tex; settings: for competition with labeled probe / affinity for C5 (in words): probe R3076 25 nM
Experimental: FP allows binding events to be measured in a homogenous solution.
Polarization was measured over time, until binding reached equilibrium. KD was determined using Graphpad Prism (using “Saturating Binding Curves, One Site—Specific Binding With Hill Slope” as the curve fit to determine KD).
10 μl of this working stock was then added to each well in the assay plate. The assay plate was incubated at room temperature, protected from light, for 20 minutes to allow binding to reach equilibrium.
Test articles listed in Table 7 were subsequently diluted in DMSO then assay buffer, comprising 10 2-fold dilutions and were then added to the assay plate in triplicate, rapidly. The assay plate was then incubated in the Paradigm (Molecular Devices, Sunnyvale, Calif.) plate reader for 60 minutes at 25° C.
After incubation for 60 minutes, the plate was read using the Paradigm FP protocol (Molecular Devices, Sunnyvale, Calif.) and raw polarization values were imported into Graphpad Prism.

[3] = Compound stability in human plasma; type: in vitro ADME
Experimental: Compounds were assayed for stability in human plasma under the following conditions. Human plasma was obtained from Bioreclamation (Westbury, N.Y.) and collected in sodium heparin. Plasma was adjusted to pH 7.4. DMSO stocks at 10 mM concentration were prepared for the test compounds. Aliquots of the DMSO solutions were dosed into 1 mL of plasma, which had been pre-warmed to 37° C., at a final test compound concentration of 10 μM. The vials were kept in a benchtop THERMOMIXER® (Eppendorf, Hauppauge, N.Y.) for the duration of the experiment. Aliquots (100 μL) were taken at each timepoint and added to a 96-well plate that had been pre-filled with 300 μL of an acetonitrile solution containing mixture of the internal standards (metoprolol, propranolol and warfarin each at 500 ng/mL). […] Aliquots of the supernatant were removed and analyzed by LC-HRAMS.

C5 [4] = molecular target: T1, C5; test: Alternative human hemolysis assay using C5 depleted sera and purified human C5; type: cell-based; parameters: purchased Complement Technology, Tyler, Tex; settings: antibody-sensitized sheep erythrocytes, 1.5% human C5 depleted sera and 0.5 nM purified human C5
rat C5 = molecular target: T2, rat C5 (Rattus norvegicus, UniProt P08650); test: Ex vivo hemolysis assays in the rat study
T2 construct: from tissue; host or cells: plasma of dosed male rats

[5] = average of Exp 1 and Exp 2, read-out: Avg, nM IC50
[6] = average of Exp 1 and Exp 2, read-out: Avg, nM Ki
[7] = competition with probe R3076 25 nM, C5 50 nM, 60 min at 25° C., experiment 1, read-out: IC50 nM, Exp 1
[8] = competition with probe R3076 25 nM, C5 50 nM, 60 min at 25° C., experiment 1, read-out: Ki nM, Exp 1
[9] = competition with probe R3076 25 nM, C5 50 nM, 60 min at 25° C., experiment 2, read-out: IC50 nM, Exp 2
[10] = competition with probe R3076 25 nM, C5 50 nM, 60 min at 25° C., experiment 2, read-out: Ki nM, Exp 2

T1 sequence (P01031 19-1676): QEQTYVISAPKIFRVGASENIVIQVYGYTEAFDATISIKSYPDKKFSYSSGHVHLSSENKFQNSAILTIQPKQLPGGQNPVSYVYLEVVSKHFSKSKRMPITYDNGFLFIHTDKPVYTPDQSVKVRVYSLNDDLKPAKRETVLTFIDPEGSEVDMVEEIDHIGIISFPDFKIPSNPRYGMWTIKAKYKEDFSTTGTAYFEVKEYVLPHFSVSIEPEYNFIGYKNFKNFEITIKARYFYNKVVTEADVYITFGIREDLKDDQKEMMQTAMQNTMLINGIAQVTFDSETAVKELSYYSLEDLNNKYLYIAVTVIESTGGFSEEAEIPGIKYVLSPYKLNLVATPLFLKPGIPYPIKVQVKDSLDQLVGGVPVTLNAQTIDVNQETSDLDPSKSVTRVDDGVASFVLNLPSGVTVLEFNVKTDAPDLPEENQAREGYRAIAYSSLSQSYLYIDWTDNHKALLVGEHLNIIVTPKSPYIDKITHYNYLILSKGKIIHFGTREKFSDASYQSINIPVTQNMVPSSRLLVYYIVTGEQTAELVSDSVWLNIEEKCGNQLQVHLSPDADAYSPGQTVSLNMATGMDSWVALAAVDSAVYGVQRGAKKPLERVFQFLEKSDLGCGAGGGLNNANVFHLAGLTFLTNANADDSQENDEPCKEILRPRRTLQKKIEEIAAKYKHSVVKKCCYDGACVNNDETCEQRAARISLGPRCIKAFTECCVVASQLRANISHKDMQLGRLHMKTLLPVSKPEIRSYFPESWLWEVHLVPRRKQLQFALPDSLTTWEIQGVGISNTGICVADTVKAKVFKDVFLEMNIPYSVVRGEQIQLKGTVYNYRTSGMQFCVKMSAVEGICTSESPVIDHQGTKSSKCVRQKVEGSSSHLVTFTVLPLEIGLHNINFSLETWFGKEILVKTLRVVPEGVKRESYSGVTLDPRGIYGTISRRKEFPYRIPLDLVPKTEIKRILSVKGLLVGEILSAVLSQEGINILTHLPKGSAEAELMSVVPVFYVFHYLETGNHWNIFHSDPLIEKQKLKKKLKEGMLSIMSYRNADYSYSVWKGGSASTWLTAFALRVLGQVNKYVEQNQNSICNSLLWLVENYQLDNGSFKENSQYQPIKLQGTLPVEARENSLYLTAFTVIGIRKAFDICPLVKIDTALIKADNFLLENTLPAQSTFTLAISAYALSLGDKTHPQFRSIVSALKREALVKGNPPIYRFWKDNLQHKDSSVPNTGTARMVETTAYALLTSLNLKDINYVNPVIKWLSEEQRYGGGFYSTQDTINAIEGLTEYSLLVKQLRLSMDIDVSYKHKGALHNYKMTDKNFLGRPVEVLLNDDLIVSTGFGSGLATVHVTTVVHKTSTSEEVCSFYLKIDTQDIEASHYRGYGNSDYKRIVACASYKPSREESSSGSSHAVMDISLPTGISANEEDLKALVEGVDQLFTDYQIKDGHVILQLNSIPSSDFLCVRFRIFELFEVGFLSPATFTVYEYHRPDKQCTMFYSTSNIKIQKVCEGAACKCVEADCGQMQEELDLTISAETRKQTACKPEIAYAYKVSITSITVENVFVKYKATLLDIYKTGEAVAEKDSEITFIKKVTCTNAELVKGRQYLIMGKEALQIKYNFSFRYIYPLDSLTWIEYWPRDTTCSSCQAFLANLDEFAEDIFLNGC
T2 sequence (P08650 19-1681): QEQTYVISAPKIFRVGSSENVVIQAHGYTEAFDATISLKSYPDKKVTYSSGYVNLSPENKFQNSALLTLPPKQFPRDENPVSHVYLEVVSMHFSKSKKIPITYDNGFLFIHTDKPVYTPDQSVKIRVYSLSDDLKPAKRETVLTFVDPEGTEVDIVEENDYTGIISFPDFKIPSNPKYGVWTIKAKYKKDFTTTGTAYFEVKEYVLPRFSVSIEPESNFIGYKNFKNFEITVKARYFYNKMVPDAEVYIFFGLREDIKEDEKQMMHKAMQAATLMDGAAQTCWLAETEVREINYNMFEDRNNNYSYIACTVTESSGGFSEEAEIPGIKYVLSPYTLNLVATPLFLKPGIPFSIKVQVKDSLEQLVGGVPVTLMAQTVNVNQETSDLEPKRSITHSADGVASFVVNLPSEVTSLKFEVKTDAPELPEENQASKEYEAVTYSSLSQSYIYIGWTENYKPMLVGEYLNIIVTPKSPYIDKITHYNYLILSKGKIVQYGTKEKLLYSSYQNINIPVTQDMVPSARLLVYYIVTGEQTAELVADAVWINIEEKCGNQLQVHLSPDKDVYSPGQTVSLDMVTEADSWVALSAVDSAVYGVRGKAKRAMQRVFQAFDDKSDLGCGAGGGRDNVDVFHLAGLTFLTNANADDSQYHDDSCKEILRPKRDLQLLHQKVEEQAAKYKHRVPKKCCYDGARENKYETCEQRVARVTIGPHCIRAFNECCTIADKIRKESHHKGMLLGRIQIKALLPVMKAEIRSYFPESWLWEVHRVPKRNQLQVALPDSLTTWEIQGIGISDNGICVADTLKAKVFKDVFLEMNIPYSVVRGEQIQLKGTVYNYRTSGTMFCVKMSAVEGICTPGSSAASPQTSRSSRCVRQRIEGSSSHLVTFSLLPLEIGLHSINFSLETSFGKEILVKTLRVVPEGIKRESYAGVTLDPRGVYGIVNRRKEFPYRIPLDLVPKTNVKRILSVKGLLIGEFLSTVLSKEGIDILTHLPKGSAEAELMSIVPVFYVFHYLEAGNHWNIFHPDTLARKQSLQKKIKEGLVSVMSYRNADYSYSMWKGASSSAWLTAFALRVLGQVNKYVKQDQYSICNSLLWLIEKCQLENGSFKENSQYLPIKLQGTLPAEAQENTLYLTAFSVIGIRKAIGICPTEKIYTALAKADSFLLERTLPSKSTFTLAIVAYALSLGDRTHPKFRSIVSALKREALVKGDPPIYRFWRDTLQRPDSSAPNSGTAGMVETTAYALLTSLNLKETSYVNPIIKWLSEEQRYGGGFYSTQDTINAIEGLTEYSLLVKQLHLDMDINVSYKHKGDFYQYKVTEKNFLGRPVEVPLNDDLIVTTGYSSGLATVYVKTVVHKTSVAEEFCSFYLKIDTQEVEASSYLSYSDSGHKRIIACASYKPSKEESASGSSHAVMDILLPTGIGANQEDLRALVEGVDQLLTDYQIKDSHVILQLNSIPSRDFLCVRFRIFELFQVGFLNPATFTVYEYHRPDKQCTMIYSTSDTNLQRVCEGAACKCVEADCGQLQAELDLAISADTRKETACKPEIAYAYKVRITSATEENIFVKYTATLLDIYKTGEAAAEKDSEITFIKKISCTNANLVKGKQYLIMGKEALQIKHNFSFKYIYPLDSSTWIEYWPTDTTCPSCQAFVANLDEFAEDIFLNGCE

Row | IC50 (C5 [2]; [5]) | Ki (C5 [2]; [6]) | IC50 (C5 [2]; [7]) | Ki (C5 [2]; [8]) | IC50 (C5 [2]; [9]) | Ki (C5 [2]; [10]) | competition with labeled probe / affinity for C5 (in words) (C5 [2]; C5 50 nM) | stability in human plasma (in words) ([3]; 37° C., up to 24 hrs) | half-life at 10 μM ([3]; pH 7.4, 37° C., 10 μM) | Percent remaining at time (hrs): 0 hrs ([3]; pH 7.4, 37° C., 10 μM, 0 hrs) | remaining at 2 h, 10 μM ([3]; plasma (collected in sodium heparin), pH 7.4, 37° C., 10 μM, 2 hrs, read-out: Percent remaining at time (hrs): 2 hrs) | remaining at 4 h, 10 μM ([3]; plasma (collected in sodium heparin), pH 7.4, 37° C., 10 μM, 4 hrs, read-out: Percent remaining at time (hrs): 4 hrs) | remaining at 12 h, 10 μM ([3]; plasma (collected in sodium heparin), pH 7.4, 37° C., 10 μM, 12 hrs, read-out: Percent remaining at time (hrs): 12 hrs) | remaining at 24 h, 10 μM ([3]; plasma (collected in sodium heparin), pH 7.4, 37° C., 10 μM, 24 hrs, read-out: Percent remaining at time (hrs): 24 hrs) | SMILES | IC50 (C5 [1]) | IC50 (C5 [4]) | inhibitory activity in ex vivo hemolysis assays (in words) (rat C5) | binding to rat C5 (in words) (rat C5; in vivo)
1 | 4230 nM | 874 nM | 4330 nM | 866 nM | 4120 nM | 882 nM | weak affinity | – | – | – | – | – | – | – | CSCC[C@H](N)C(=O)N[C@H]1CSCc2cccc(c2)CSC[C@@H](C(=O)N[C@@H](CC(=O)O)C(=O)N[C@H](C(=O)N[C@@H](Cc2ccc(O)cc2)C(=O)N[C@@H](Cc2c[nH]c3ccccc23)C(=O)N[C@@H](CCC(=O)O)C(N)=O)C(C)C)NC(=O)[C@H](Cc2ccccc2)NC(=O)[C@H](CCCNC(=N)N)NC(=O)[C@H](CCC(=O)O)NC(=O)[C@H](C(C)C)NC1=O [Compound R3043, [mXylyl(2,7)]M-C-V-E-R-F-C-D-V-Y-W-E-NE2] (H-MCVERFCDVYWE-NH2; linker 2-7 via mXylylene) | 934 nM | – | – | –
2 | 280 nM | 64.3 nM | 267 nM | 71.1 nM | 293 nM | 57.6 nM | relatively strong affinity | highly stable | > 24 h | 100% | 109% | 100% | 88% | 98.1% | CCC[C@H](NC(=O)[C@@H]1CSCc2ccc(cc2)CSC[C@H](NC(=O)[C@H](CCC)NC(C)=O)C(=O)N[C@@H](c2ccccc2)C(=O)N[C@@H]([C@@H](C)O)C(=O)N[C@@H](Cc2c[nH]c3ncccc23)C(=O)N[C@@H](CCC(=O)O)C(=O)N[C@@H](Cc2ccc(O)cc2)C(=O)N(C)[C@@H](CO)C(=O)N[C@@H](Cc2c[nH]cn2)C(=O)N1)C(N)=O [Compound R3050, [pXylyl(2,10)]Ac-Nvl-C-Phg-T-azaTrp-E-Y-(N-Me)S-H-C-Nvl-NH2] (Ac-[Nva]C[Phg]T[Trp(7-aza)]EY[NMeS]HC[Nva]-NH2; linker 2-10 via pXylylene) | 42.9 nM | – | – | –
3 | – | – | – | – | – | – | – | – | – | – | – | – | – | – | CC(=O)N[C@H]1CCCCNC(=O)C[C@@H](C(=O)N(C)[C@@H](CC(=O)O)C(=O)N[C@H](C(=O)N[C@@H](Cc2ccc(O)cc2)C(=O)N[C@@H](Cc2c[nH]c3ncccc23)C(=O)N[C@@H](CCC(=O)O)C(=O)N[C@@H](Cc2ccc(O)cc2)C(=O)N2CCC[C@H]2C(=O)N[C@H](C(=O)N[C@@H](CCCCN)C(N)=O)C2CCCCC2)C(C)(C)C)NC(=O)[C@H](Cc2ccccc2)NC(=O)[C@H](CCCNC(=N)N)NC(=O)[C@H](CCC(=O)O)NC(=O)[C@H](C(C)C)NC1=O [Compound R3192, [cyclo(1,6)]Ac-K-V-E-R-F-D-(N-Me)D-Tbg-Y-azaTrp-E-Y-P-Chg-K-NH2] | – | 1.5 nM | – | –
4 | – | – | – | – | – | – | – | – | – | – | – | – | – | – | CCC[C@H](NC(=O)[C@@H](NC(=O)[C@@H]1CCCN1C(=O)[C@H](Cc1ccc(O)cc1)NC(=O)[C@H](CCC(=O)O)NC(=O)[C@H](Cc1c[nH]c2ncccc12)NC(=O)[C@H](Cc1ccc(O)cc1)NC(=O)[C@@H](NC(=O)[C@H](CC(=O)O)NC(=O)[C@@H]1CSCc2cccc(c2)CSC[C@H](NC(C)=O)C(=O)N[C@@H](C(C)C)C(=O)N[C@@H](CCC(=O)O)C(=O)N[C@@H](CCCNC(=N)N)C(=O)N[C@@H](Cc2ccccc2)C(=O)N1)C(C)(C)C)C1CCCCC1)C(=O)O [Compound R3201, [mXylyl(1,6)]Ac-C-V-E-R-F-C-D-Tbg-Y-azaTrp-E-Y-P-Chg-Nvl] | – | – | very little inhibitory activity | do not bind
